From article PMC10226046, “Prodrug Strategies for the Development of β-L-5-((E)-2-Bromovinyl)-1-((2S,4S)-2-(hydroxymethyl)-1,3-(dioxolane-4-yl))uracil (L-BHDU) against Varicella Zoster Virus (VZV)” (Journal of Medicinal Chemistry, 2023)

What was measured:
VZV-ORF57-Luc = assay: microbe, parasite or virus in culture; type: cell-based, Varicella zoster virus; details: Human alphaherpesvirus 3, ARPE-19
[1] = Neutral red dye uptake cytotoxicity assay in ARPE-19 cells; details: human
VZV-ORF57-ΔTKTS = assay: microbe, parasite or virus in culture; type: cell-based, Varicella zoster virus; details: Human alphaherpesvirus 3, ARPE-19
VZV-ORF57-ΔTK = assay: microbe, parasite or virus in culture; type: cell-based, Varicella zoster virus; details: Human alphaherpesvirus 3, ARPE-19
[2] = In vitro stability in mouse liver homogenates (LC-MS/MS); type: in vitro ADME, BALB/c mice; details: 37 °C; converted to L-BHDU and L-BHDU-MP
Method: The antiviral efficacy of POM-L-BHDU-MP prompted us to perform pharmacokinetic studies on POM-L-BHDU-MP in vitro and in vivo. […] In liver homogenates, POM-L-BHDU-MP converted to L-BHDU and L-BHDU-MP (Figure 4). POM-L-BHDU-MP incubated with homogenized mouse liver was unstable and converted to L-BHDU and L-BHDU-MP. The concentration of L-BHDU increased steadily, reaching 1.9 μg/mL after 60 min. L-BHDU-MP appeared rapidly and reached maximal concentration (4.6 μg/mL) after 4 min, which is 32-fold higher than the corresponding L-BHDU concentration. Thus, POM-L-BHDU-MP likely converts rapidly into L-BHDU-MP and more slowly into L-BHDU in the liver.
Untreated BALB/c mice were euthanized, and their livers were immediately removed. […] The concentration of POM-L-BHDU-MP, L-BHDU, and L-BHDU-MP were determined using LC-MS/MS.
The primary stock solutions for the calibration were prepared at 0.5 mg/mL for L-BHDU, 1 mg/mL for POM-L-BHDU-MP, and 1 mg/mL for L-BHDU-MP. […] The samples were analyzed in a negative ESI mode. […] The collision gas was argon with a collision cell pressure of 3.18 × 10^–3 mbar, and the collision energy was 30 V. A multiple reaction monitoring (MRM) function was used to quantify the analytes using the following ion transitions: 266.1 → 223.2 for AZT (ISTD), 318.7 → 80.7 for L-BHDU, 398.7 → 180.9 for L-BHDU-MP, and 626.6 → 325 for POM-L-BHDU-MP.

## CC(C)(C)C(=O)OCOP(=O)(OCOC(=O)C(C)(C)C)OC[C@H]1OC[C@@H](n2cc(/C=C/Br)c(=O)[nH]c2=O)O1 [POM-L-BHDU-MP (41), Bis(POM) Prodrug of L-BHDU-MP]
VZV-ORF57-Luc
  EC50: 51 nM
[1]
  CC50 at 72 h: > 100000 nM
VZV-ORF57-ΔTKTS
  EC50: > 2000 nM
VZV-ORF57-ΔTK
  EC50: > 2000 nM
[2]
  stability in homogenized mouse liver: unstable
